Measured values as given in patent publication US20100267561A1, “HERBICIDAL PYRIDAZINONE DERIVATIVES” (priority 2007, published 2010).

Key:
Type in all cases: in vivo
rice (Oryza sativa) = experiment: Test B flooded paddy test plant response
In short: (§1)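 2-leaf plants; pots flooded 3 cm above soil; compound added to paddy water; depth maintained. Greenhouse 13–15 d. Visual rating vs controls, 0 (no effect) to 100 (complete control); dash = no result.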

[1] = test system: ducksalad (Heteranthera limosa); experiment: Test B flooded paddy test plant response
In short: as §1

[2] = test system: barnyardgrass (Echinochloa crus-galli); experiment: Test B flooded paddy test plant response
In short: as §1

[3] = test system: umbrella sedge (Cyperus difformis); experiment: Test B flooded paddy test plant response
In short: as §1

[4] = test system: green foxtail (Setaria viridis); experiment: Test B pre-/postemergence plant response; details: Preemergence
In short: (§2)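 Seeds were sown and sprayed preemergence, while plants at 2 to 18 cm (1- to 4-leaf stage) got postemergence sprays. Compounds were formulated in a non-phytotoxic solvent mixture with surfactant. After 13 to 15 days in a greenhouse, injury was rated visually against untreated controls, 0 (no effect) to 100 (complete control).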

[5] = test system: large crabgrass (Digitaria sanguinalis); experiment: Test B pre-/postemergence plant response; details: Preemergence
In short: as §2

[6] = test system: woolly cupgrass (Eriochloa villosa); experiment: Test B pre-/postemergence plant response; details: Preemergence
In short: as §2

[7] = test system: eastern black (E.B.) nightshade (Solanum ptycanthum); experiment: Test B pre-/postemergence plant response; details: Preemergence
In short: as §2

[8] = test system: giant foxtail (Setaria faberii); experiment: Test B pre-/postemergence plant response; details: Preemergence
In short: as §2

corn (Zea mays) = experiment: Test B pre-/postemergence plant response; details: Preemergence
In short: as §2

wild oat (Avena fatua) = experiment: Test B pre-/postemergence plant response; details: Preemergence
In short: as §2

[9] = test system: downy bromegrass (Bromus tectorum); experiment: Test B pre-/postemergence plant response; details: Preemergence
In short: as §2

[10] = test system: pigweed (Amaranthus retroflexus); experiment: Test B pre-/postemergence plant response; details: Preemergence
In short: as §2

[11] = Flood (flooded paddy test), 62 g ai/ha, scale 0 to 100, 0 no effect, 100 complete control
[12] = Flood (flooded paddy test), 125 g ai/ha, scale 0 to 100, 0 no effect, 100 complete control
[13] = Flood (flooded paddy test), 250 g ai/ha, scale 0 to 100, 0 no effect, 100 complete control
[14] = Flood, 31 g ai/ha, scale 0 to 100
[15] = 31 g ai/ha, 0 to 100 scale, 0 no effect, 100 complete control

Cc1cc(-c2ccc(C(F)(F)F)cc2)nn1-c1c(OC(=O)C(C)(C)C)cnn(C)c1=O [Compound 2]
20: Plant response rating, Barnyardgrass [2, 12] | Plant response rating, Bromegrass, Downy ([9]; 62 g ai/ha, scale 0 to 100)
70: Plant response rating, Cupgrass, Woolly [6, 15] | Plant response rating, Bromegrass, Downy ([9]; 125 g ai/ha, scale 0 to 100) | Plant response rating, Pigweed ([10]; 125 g ai/ha, scale 0 to 100) | Plant response rating, Pigweed ([10]; 250 g ai/ha, scale 0 to 100)
100: Plant response rating, Foxtail, Green ([4]; 125 g ai/ha, scale 0 to 100) | Plant response rating, Foxtail, Green ([4]; 250 g ai/ha, scale 0 to 100) | Plant response rating, Crabgrass, Large ([5]; 62 g ai/ha, scale 0 to 100) | Plant response rating, Crabgrass, Large ([5]; 125 g ai/ha, scale 0 to 100) | Plant response rating, Crabgrass, Large ([5]; 250 g ai/ha, scale 0 to 100) | Plant response rating, Cupgrass, Woolly ([6]; 250 g ai/ha, scale 0 to 100) | Plant response rating, Foxtail, Giant [8, 15] | Plant response rating, Foxtail, Giant ([8]; 62 g ai/ha, scale 0 to 100) | Plant response rating, Foxtail, Giant ([8]; 125 g ai/ha, scale 0 to 100) | Plant response rating, Foxtail, Giant ([8]; 250 g ai/ha, scale 0 to 100)
80: Plant response rating, Cupgrass, Woolly ([6]; 62 g ai/ha, scale 0 to 100) | Plant response rating, Cupgrass, Woolly ([6]; 125 g ai/ha, scale 0 to 100)
98: Plant response rating, Crabgrass, Large [5, 15]
90: Plant response rating, Foxtail, Green [4, 15] | Plant response rating, Corn (corn (Zea mays); 62 g ai/ha, scale 0 to 100)
40: Plant response rating, Ducksalad [1, 13]
15: Plant response rating, Rice (rice (Oryza sativa); [11]) | Plant response rating, Rice (rice (Oryza sativa); [12])
60: Plant response rating, Sedge, Umbrella [3, 12] | Plant response rating, Oat, Wild (wild oat (Avena fatua); 250 g ai/ha, scale 0 to 100)
45: Plant response rating, Rice (rice (Oryza sativa); [13]) | Plant response rating, Barnyardgrass [2, 13]
95: Plant response rating, Foxtail, Green ([4]; 62 g ai/ha, scale 0 to 100) | Plant response rating, Corn (corn (Zea mays); 125 g ai/ha, scale 0 to 100) | Plant response rating, Corn (corn (Zea mays); 250 g ai/ha, scale 0 to 100)
0: Plant response rating, Rice (rice (Oryza sativa); [14]) | Plant response rating, Ducksalad [1, 11] | Plant response rating, Ducksalad [1, 12] | Plant response rating, Ducksalad [1, 14] | Plant response rating, Barnyardgrass [2, 11] | Plant response rating, Barnyardgrass [2, 14] | Plant response rating, Sedge, Umbrella [3, 14] | Plant response rating, Nightshade, E. B. [7, 15] | Plant response rating, Nightshade, E. B. ([7]; 62 g ai/ha, scale 0 to 100) | Plant response rating, Nightshade, E. B. ([7]; 125 g ai/ha, scale 0 to 100) | Plant response rating, Nightshade, E. B. ([7]; 250 g ai/ha, scale 0 to 100) | Plant response rating, Oat, Wild (wild oat (Avena fatua); [15]) | Plant response rating, Bromegrass, Downy [9, 15] | Plant response rating, Pigweed [10, 15] | Plant response rating, Pigweed ([10]; 62 g ai/ha, scale 0 to 100)
50: Plant response rating, Sedge, Umbrella [3, 11] | Plant response rating, Corn (corn (Zea mays); [15]) | Plant response rating, Oat, Wild (wild oat (Avena fatua); 62 g ai/ha, scale 0 to 100)
